These results are taken from PMC9151520 (Archives of Toxicology, 2022).

For data set [1], the system named is p53 signaling (p53RE-bla HCT-116 cells). Nature of the data set: cells. Format: cell-based.
The test system is the same in data set [2].
The test system is the same in data set [3]. The source holds these as a separate data set.
The mark [4] stands for this setting: read-out: p53 activation EC50, cherry pick confirmation.
The mark [5] stands for this setting: read-out: p53 activation EC50, primary screening.
[6] abbreviates: read-out: Viability EC50, cherry pick confirmation.
[7] abbreviates: read-out: Viability EC50, primary screening.
The mark [8] stands for this setting: Homo sapiens, HCT-116, read-out: EC50, p53 activation, primary screening.
The mark [9] stands for this setting: Homo sapiens, HCT-116, read-out: Efficacy, p53 activation, primary screening.

The structures appear in SMILES notation. “And” between values parts separate entries of the source, which are not always exact repeats. Identical values can stand only once. Like-named read-outs stand apart in the source and are kept apart here.

Regarding `Nc1cc(Cl)c(-c2cc(Cl)c(N)cc2Cl)cc1Cl` [2,2',5,5'-Tetrachlorobenzidine], the “p53 activation efficacy, cherry pick confirmation” value is 92.1083 in data set [1], “inactive” in data set [2] and “inactive” in data set [3]. The figures for the “p53 activation efficacy, primary screening” value in data set [1], in data set [2] and in data set [3] were 80.5693, “inactive” and “inactive”, respectively. Further, the EC50 (commonly the concentration at which the effect is half-maximal) is 36.2 µM in data set [1] (setting [4]); 17.8 µM in data set [1] (setting [5]); 49.4 µM and 51.3 µM in the data set with p53RE-bla HCT-116 cells (setting [6]); 49.5 µM (2×) and 37.5 µM in the data set on p53RE-bla HCT-116 cells (setting [7]). The “Viability EC50, cherry pick confirmation” value in the data set with p53RE-bla HCT-116 cells is “inactive”. The “p53 activation EC50, cherry pick confirmation” value in data set [2] and in data set [3] was “inactive” in each case. Further, the “p53 activation EC50, primary screening” value in data set [2] and in data set [3] was “inactive” in each case.

On to `O=C(c1ccc(O)cc1)c1ccc(O)cc1O` [2,4,4'-Trihydroxybenzophenone], for which, in data set [1], the “EC50, p53 activation, cherry pick confirmation” value was “inactive”; the “Efficacy, p53 activation, cherry pick confirmation” value was “inactive”; the “Efficacy, p53 activation, primary screening” value was determined as 51.9983. Also, the EC50 in data set [1] (read-out: EC50, p53 activation, primary screening) stood at 46.5 µM. In addition, in the data set with p53RE-bla HCT-116 cells, the “EC50, viability, cherry pick confirmation” value is “inactive”; the “EC50, viability, primary screening” value was “inactive”; the “Efficacy, viability, cherry pick confirmation” value is “inactive”; the “Efficacy, viability, primary screening” value is “inactive”. In data set [2], the “EC50, p53 activation, cherry pick confirmation” value is “inactive”; the “EC50, p53 activation, primary screening” value is “inactive”; the “Efficacy, p53 activation, cherry pick confirmation” value was “inactive”; the “Efficacy, p53 activation, primary screening” value is “inactive”. For the same compound, in data set [3], the “EC50, p53 activation, cherry pick confirmation” value was “inactive”; the “EC50, p53 activation, primary screening” value is “inactive”; the “Efficacy, p53 activation, cherry pick confirmation” value is “inactive”; the “Efficacy, p53 activation, primary screening” value was “inactive”.

On to `Cc1cccc2sc3nncn3c12` [2,7,8,9-Tricyclazole], for which the “p53 activation EC50” value in data set [1], in data set [2] and in data set [3] was “inactive” each time. For the same compound, the p53 activation efficacy entry in data set [1] was “inactive”. Moreover, in the data set on p53RE-bla HCT-116 cells, the “Viability EC50” value was “inactive”. Further, the Viability efficacy result with p53RE-bla HCT-116 cells was “inactive”.

`Nc1cc(Cl)ccc1O` [2-Amino-4-chlorophenol]: in data set [1], the “EC50, p53 activation, cherry pick confirmation” value is “inactive” and the “Efficacy, p53 activation, cherry pick confirmation” value was “inactive”. The concentration giving a half-maximal response (EC50) in data set [1] (setting [8]) stood at 38.2 µM. In addition, in data set [1] (setting [9]), the Emax was found to be 53.8%. In the data set with p53RE-bla HCT-116 cells, the “EC50, viability, cherry pick confirmation” value was “inactive”; the “EC50, viability, primary screening” value is “inactive”; the “Efficacy, viability, cherry pick confirmation” value was “inactive”; the “Efficacy, viability, primary screening” value is “inactive”. Also, in data set [2], the “EC50, p53 activation, cherry pick confirmation” value is “inactive”; the “EC50, p53 activation, primary screening” value is “inactive”; the “Efficacy, p53 activation, cherry pick confirmation” value is “inactive”; the “Efficacy, p53 activation, primary screening” value is “inactive”. In addition, in data set [3], the “EC50, p53 activation, cherry pick confirmation” value is “inactive”; the “EC50, p53 activation, primary screening” value was “inactive”; the “Efficacy, p53 activation, cherry pick confirmation” value is “inactive”; the “Efficacy, p53 activation, primary screening” value was “inactive”.

On to `Clc1ccc2cc3ccccc3cc2c1` [2-Chloroanthracene], for which the “p53 activation Efficacy, No MS” value in data set [1] is 70.691% and 61.8737%. For the same compound, the 50% effective concentration (EC50) in data set [1] (read-out: p53 activation EC50, No MS) was 35.6 µM. Besides, in the data set with p53RE-bla HCT-116 cells, the “Viability EC50, HLM” value was “inactive”; the “Viability EC50, No MS” value is “inactive”; the “Viability EC50, RLM” value is “inactive”; the “Viability Efficacy, HLM” value was “inactive”. In the data set with p53RE-bla HCT-116 cells, the “Viability Efficacy, No MS” value is “inactive” and the “Viability Efficacy, RLM” value was “inactive”. For the same compound, in data set [2], the “p53 activation EC50, HLM” value was “inactive”. For the same compound, in data set [2] (read-out: p53 activation EC50, HLM), the EC50 is 23.2 µM. Besides, the “p53 activation EC50, RLM” value in data set [3] is “inactive”. Also, the 50% effective concentration (EC50) in data set [3] (read-out: p53 activation EC50, RLM) is 50.1 µM.

Take `CCCCNC(=O)OCC#CI` [3-Iodo-2-propynyl-N-butylcarbamate]: in data set [1], the “p53 activation efficacy, cherry pick confirmation” value is recorded as 104.439 and the “p53 activation efficacy, primary screening” value stood at 78.699. Besides, the EC50 in data set [1] (setting [4]) is 34.4 µM. For the same compound, the EC50 in data set [1] (setting [5]) was determined as 47.6 µM. In the data set on p53RE-bla HCT-116 cells, the “Viability EC50, cherry pick confirmation” value was “inactive”; the “Viability EC50, primary screening” value is “inactive”; the “Viability efficacy, cherry pick confirmation” value is “inactive”; the “Viability efficacy, primary screening” value is “inactive”. Also, in data set [2], the “p53 activation EC50, cherry pick confirmation” value is “inactive”; the “p53 activation EC50, primary screening” value was “inactive”; the “p53 activation efficacy, cherry pick confirmation” value is “inactive”; the “p53 activation efficacy, primary screening” value is “inactive”. In addition, in data set [3], the “p53 activation EC50, cherry pick confirmation” value is “inactive”; the “p53 activation EC50, primary screening” value was “inactive”; the “p53 activation efficacy, cherry pick confirmation” value was “inactive”; the “p53 activation efficacy, primary screening” value is “inactive”.

`Oc1ccc(C2(c3ccc(O)cc3)c3ccccc3-c3ccccc32)cc1` [4,4'-(9H-Fluorene-9,9-diyl)diphenol]: the “p53 activation efficacy, cherry pick confirmation” value in data set [1] was 169.95; in data set [2] it was “inactive”; in data set [3], “inactive”. The figures for the “p53 activation efficacy, primary screening” value in data set [1], in data set [2] and in data set [3] were 157.361, “inactive” and “inactive”, respectively. Moreover, the EC50 was 44.8 µM in data set [1] (setting [4]); 47.6 µM in data set [1] (setting [5]); 34.3 µM and 32.4 µM and 45.8 µM in the data set with p53RE-bla HCT-116 cells (setting [6]); 49.5 µM in the data set with p53RE-bla HCT-116 cells (setting [7]). Further, in the data set on p53RE-bla HCT-116 cells, the “Viability EC50, primary screening” value is “inactive”. Besides, the “p53 activation EC50, cherry pick confirmation” value in data set [2] and in data set [3] was “inactive” each time. The “p53 activation EC50, primary screening” value in data set [2] and in data set [3] was “inactive” in each case.

Consider `Oc1ccc(-c2ccc(O)cc2)cc1` [4,4'-Biphenyldiol], for which, in data set [1], the “EC50, p53 activation, cherry pick confirmation” value is “inactive” and the “Efficacy, p53 activation, cherry pick confirmation” value is “inactive”. The EC50 in data set [1] (setting [8]) was found to be 35.4 µM. In addition, in data set [1] (setting [9]), the Emax was determined as 48.2%. In the data set with p53RE-bla HCT-116 cells, the “EC50, viability, cherry pick confirmation” value is “inactive”; the “EC50, viability, primary screening” value is “inactive”; the “Efficacy, viability, cherry pick confirmation” value is “inactive”; the “Efficacy, viability, primary screening” value is “inactive”. For the same compound, in data set [2], the “EC50, p53 activation, cherry pick confirmation” value is “inactive”; the “EC50, p53 activation, primary screening” value was “inactive”; the “Efficacy, p53 activation, cherry pick confirmation” value was “inactive”; the “Efficacy, p53 activation, primary screening” value is “inactive”. Moreover, in data set [3], the “EC50, p53 activation, cherry pick confirmation” value was “inactive”; the “EC50, p53 activation, primary screening” value is “inactive”; the “Efficacy, p53 activation, cherry pick confirmation” value is “inactive”; the “Efficacy, p53 activation, primary screening” value was “inactive”.

`Oc1ccc(OCc2ccccc2)cc1` [4-(Benzyloxyl)phenol]: the EC50 in data set [1] (Homo sapiens, HCT-116, read-out: p53 activation EC50, cherry pick confirmation) came to 14 µM. Besides, the EC50 in data set [1] (Homo sapiens, HCT-116, read-out: p53 activation EC50, primary screening) worked out at 18.6 µM. In addition, the Emax in data set [1] (Homo sapiens, HCT-116, read-out: p53 activation efficacy, cherry pick confirmation) was determined as 39%. Moreover, the Emax in data set [1] (Homo sapiens, HCT-116, read-out: p53 activation efficacy, primary screening) worked out at 33.5%. For the same compound, in the data set on p53RE-bla HCT-116 cells, the “Viability EC50, cherry pick confirmation” value is “inactive”; the “Viability EC50, primary screening” value is “inactive”; the “Viability efficacy, cherry pick confirmation” value is “inactive”; the “Viability efficacy, primary screening” value is “inactive”. In data set [2], the “p53 activation EC50, cherry pick confirmation” value was “inactive”; the “p53 activation EC50, primary screening” value is “inactive”; the “p53 activation efficacy, cherry pick confirmation” value was “inactive”; the “p53 activation efficacy, primary screening” value was “inactive”. For the same compound, in data set [3], the “p53 activation EC50, cherry pick confirmation” value is “inactive”; the “p53 activation EC50, primary screening” value is “inactive”; the “p53 activation efficacy, cherry pick confirmation” value was “inactive”; the “p53 activation efficacy, primary screening” value is “inactive”.

`c1cc(N(CC2CO2)CC2CO2)ccc1OCC1CO1` (stereo not drawn) [4-(Diglycidylamino)phenyl glycidyl ether]: in data set [1], the “p53 activation efficacy, cherry pick confirmation” value was 85.4543 and the “p53 activation efficacy, primary screening” value turned out to be 57.856. Further, the EC50 in data set [1] (setting [4]) was 23.5 µM. In addition, the half-maximal effective concentration (EC50) in data set [1] (setting [5]) is 27.3 µM. Further, in the data set with p53RE-bla HCT-116 cells, the “Viability EC50, cherry pick confirmation” value was “inactive”; the “Viability EC50, primary screening” value was “inactive”; the “Viability efficacy, cherry pick confirmation” value is “inactive”; the “Viability efficacy, primary screening” value is “inactive”. In data set [2], the “p53 activation EC50, cherry pick confirmation” value is “inactive”; the “p53 activation EC50, primary screening” value was “inactive”; the “p53 activation efficacy, cherry pick confirmation” value is “inactive”; the “p53 activation efficacy, primary screening” value was “inactive”. In data set [3], the “p53 activation EC50, cherry pick confirmation” value was “inactive”; the “p53 activation EC50, primary screening” value is “inactive”; the “p53 activation efficacy, cherry pick confirmation” value was “inactive”; the “p53 activation efficacy, primary screening” value is “inactive”.
